This note sets out measurements from EP4818194A1, “CHEMICALLY MODIFIED POLYPEPTIDE” (priority 2023, dated 2025).

For orientation: MRT means a mean duration of stay, worked out from the concentration-time curve. A word on the half-life: it is the time needed for the level to fall by half in the phase considered. A low value points to fast loss. In general, EC50 refers to the midpoint of the concentration-response curve.

The nature of data set [1]: Pharmacokinetic characteristics in rats after intravenous administration (plasma, LC-MS/MS). The class given is in vivo. The following applies: rat, SD rats, tail vein, 10 mg/kg; for Vd: read-out: Vss. The protocol: Intravenous administration: Three SD rats per group were administered the compounds of Example 1, Example 2, Example 3, Example 6, Example 7, Example 17, and Example 19 via the tail vein, respectively, at a dose of 10 mg/kg. all SD rats were allowed free access to food and water after administration. Plasma was collected 3 min, 10 min, 30 min, 1 h, 2 h, 6 h, 10 h, and 24 h after administration, with 3 rats per time point.
Sample processing: Whole blood was anticoagulated with EDTA-K2. Within 30 minutes of collection, the blood was centrifuged at 3000g for 10 minutes at 2-8°C. After centrifugation, the separated plasma was transferred to new 1.5 mL centrifuge tubes and stored at -80°C.
Analytical method: The concentrations of each compounds in rat plasma were determined by LC-MS/MS using Shimadzu LC30AD and AB Sciex QTRAP 6500+instruments. The relevant pharmacokinetic parameters after administration were calculated. Table 5: Pharmacokinetic parameters after administration

Data set [2] has as its system PC-12 cells. In kind it is cell-based. Particulars: for Normalized cell viability (%): PC-12 cells, 10 nM polypeptide pretreatment for 30 minutes, then glutamate stimulation for 24 hours, normalized to positive control MK-801 and glutamate group. The procedure:
PC-12 cells (a […] cell line derived from rat adrenal medulla) were cultured in DMEM/F12 complete medium until eaching 80-90% confluence. The cells were then digested, collected, resuspended, and seeded at density of 5 × 10^4 cells per well in a 24-well plate precoated with coverslips. Following 26 hours of cell culture, excitotoxic cell death was induced by glutamate stimulation. For model establishment: an appropriate amount of glutamate was weighed and dissolved in DMEM/F12 medium to prepare a stock solution. After filtration, the stock solution was diluted with culture medium and administered to the cells via medium replacement. The cells were further incubated for 24 hours after administration.
Prior to glutamate modeling, cells incubated as described in the previous step were pretreated with 10 nM of the polypeptide compound according to the present application for 30 minutes, followed by glutamate stimulation.
Cells treated with the polypeptide compound according to the present application were stained with propidium iodide to assess cell death. After discarding the culture medium, the cells were washed with PBS, and propidium iodide/Hoechst was added. After incubating for 30 minutes, the cells were removed and the staining solution was discarded. After washing with PBS, the cells were fixed and mounted, and subjected to image acquisition under a fluorescence microscope. The number of propidium iodide-positive cells and Hoechst-positive cells in the acquired images was counted to calculate the cell viability. MK-801 was used as the positive control compound. The normalized cell viability was calculated using the following formula: (cell viability of the compound group - cell viability of the glutamate group) / (cell viability of the positive control group - cell viability of the glutamate group) × 100%.
Based on the above dose-response studies of the compound, the inhibitory effects of different small-molecule compounds at the same dose (10 nM) against excitotoxic death in PC-12 neurons cells were further compared. […]

Where a SMILES comes first, the peptide text is derived from it. Where no end group is shown, it is not given here. [ ]: non-standard residue; d: D form. pY = N[C@@H](Cc1ccc(OP(=O)(O)O)cc1)C(=O)O; NMeY = CN[C@@H](Cc1ccc(O)cc1)C(=O)O; Tle = CC(C)(C)[C@H](N)C(=O)O; Aib = CC(C)(N)C(=O)O

As to `CN[C@@H](Cc1ccc(O)cc1)C(=O)NCC(=O)N[C@@H](CCCNC(=N)N)C(=O)N[C@@H](CCCCN)C(=O)N[C@@H](CCCCN)C(=O)N[C@@H](CCCNC(=N)N)C(=O)N[C@@H](CCCNC(=N)N)C(=O)N[C@@H](CCC(N)=O)C(=O)N[C@@H](CCCNC(=N)N)C(=O)N[C@@H](CCCNC(=N)N)C(=O)N[C@@H](CCCNC(=N)N)C(=O)N[C@@H](CCCCN)C(=O)N[C@@H](CCCCN)C(=O)N[C@@H](CC(N)=O)C(=O)N[C@@H](CCCNC(=N)N)C(=O)N[C@@H](CC(N)=O)C(=O)N[C@@H](CCCCN)C(=O)N[C@@H](CC(C)C)C(=O)N[C@@H](CCCNC(=N)N)C(=O)N[C@@H](CCCNC(=N)N)C(=O)N[C@@H](CCC(N)=O)C(=O)N[C@@H](Cc1c[nH]cn1)C(=O)N[C@@H](CO)C(=O)N[C@@H](Cc1ccc(O)cc1)C(=O)O` [Example 2] (H-[NMeY]GRKKRRQRRRKKNRNKLRRQHSY-OH), in data set [1], the MRT was 1.84 h, the half-life was 1.73 h and the Vd was found to be 3.94 L/kg.

As for `CC(C)C[C@H](NC(=O)[C@H](CCCCN)NC(=O)[C@H](CC(N)=O)NC(=O)[C@H](CCCNC(=N)N)NC(=O)[C@H](CC(N)=O)NC(=O)[C@H](CCCCN)NC(=O)[C@H](CCCCN)NC(=O)[C@H](CCCNC(=N)N)NC(=O)[C@H](CCCNC(=N)N)NC(=O)[C@H](CCCNC(=N)N)NC(=O)[C@H](CCC(N)=O)NC(=O)[C@H](CCCNC(=N)N)NC(=O)[C@H](CCCNC(=N)N)NC(=O)[C@H](CCCCN)NC(=O)[C@H](CCCCN)NC(=O)[C@H](CCCNC(=N)N)NC(=O)CNC(=O)[C@@H](N)Cc1ccc(OP(=O)(O)O)cc1)C(=O)N[C@@H](CCCNC(=N)N)C(=O)N[C@@H](CCCNC(=N)N)C(=O)N[C@@H](CCC(N)=O)C(=O)N[C@@H](Cc1c[nH]cn1)C(=O)N[C@@H](CO)C(=O)N[C@@H](Cc1ccc(O)cc1)C(=O)O` [Example 3] (H-[pY]GRKKRRQRRRKKNRNKLRRQHSY-OH), in data set [1], the MRT was 1.71 h, the half-life is 1.28 h and the Vd is 7.9 L/kg.

Take `CN[C@@H](Cc1ccc(O)cc1)C(=O)NCC(=O)N[C@@H](CCCNC(=N)N)C(=O)N[C@@H](CCCCN)C(=O)N[C@@H](CCCCN)C(=O)N[C@@H](CCCNC(=N)N)C(=O)N[C@@H](CCCNC(=N)N)C(=O)N[C@@H](CCC(=O)O)C(=O)N[C@@H](CCCNC(=N)N)C(=O)N[C@@H](CCCNC(=N)N)C(=O)N[C@@H](CCCNC(=N)N)C(=O)N[C@@H](CCCCN)C(=O)N[C@@H](CCCCN)C(=O)N[C@@H](CC(=O)O)C(=O)N[C@@H](CCCNC(=N)N)C(=O)N[C@@H](CC(=O)O)C(=O)N[C@@H](CCCCN)C(=O)N[C@@H](CC(C)C)C(=O)N[C@@H](CCCNC(=N)N)C(=O)N[C@@H](CCCNC(=N)N)C(=O)N[C@@H](CCC(=O)O)C(=O)N[C@@H](Cc1c[nH]cn1)C(=O)N[C@@H](CO)C(=O)N[C@@H](Cc1ccc(O)cc1)C(N)=O` [Example 19] (H-[NMeY]GRKKRRERRRKKDRDKLRREHSY-NH2): in data set [1], the MRT stood at 1.73 h, the half-life is 1.16 h and the Vd came out at 9.11 L/kg.

In the case of `CN[C@@H](Cc1ccc(O)cc1)C(=O)NC(C)(C)C(=O)N[C@@H](CCCNC(=N)N)C(=O)N[C@@H](CCCCN)C(=O)N[C@@H](CCCCN)C(=O)N[C@@H](CCCNC(=N)N)C(=O)N[C@@H](CCCNC(=N)N)C(=O)N[C@@H](CCC(=O)O)C(=O)N[C@@H](CCCNC(=N)N)C(=O)N[C@@H](CCCNC(=N)N)C(=O)N[C@@H](CCCNC(=N)N)C(=O)N[C@@H](CCCCN)C(=O)N[C@@H](CCCCN)C(=O)N[C@@H](CC(=O)O)C(=O)N[C@@H](CCCNC(=N)N)C(=O)N[C@@H](CC(=O)O)C(=O)N[C@@H](CCCCN)C(=O)N[C@H](C(=O)N[C@@H](CCCNC(=N)N)C(=O)N[C@@H](CCCNC(=N)N)C(=O)N[C@@H](CCC(=O)O)C(=O)N[C@@H](Cc1c[nH]cn1)C(=O)N[C@@H](CO)C(=O)N[C@@H](Cc1ccc(O)cc1)C(N)=O)C(C)(C)C` [Example 24, Me-YAibRKKRRERRRKKDRDKTleRREHSY-NH2] (H-[NMeY][Aib]RKKRRERRRKKDRDK[Tle]RREHSY-NH2), it took 1.35 nM to reach a half-maximal effect in data set [2] (26 h) (EC50).

In the case of Ac-YGRKKRRQRRRKKNRNKLRRQHSY [Example 4], the “Normalized cell viability (%)” value in data set [2] stood at 85.00%.

Turning to “Ac-YGRKKRRQRRRKKNRNKLRRQHSY-NH2 [Example 7]”, in data set [1], the MRT worked out at 1.93 h, the half-life was 1.51 h and the Vd is 3.58 L/kg.

Turning to YGRKKRRERRRKKDRNKLRRQHSY [Example 17], in data set [1], the mean residence time MRT was 2.29 h, the half-life was 1.66 h and the Vd turned out to be 23.1 L/kg.

Consider “YGRKKRRQRRRKKNRNKLRRQHSY [Example 1, reference compound]”, for which the “Normalized cell viability (%)” value in data set [2] stood at 41.00%. Further, in data set [1], the MRT was 0.87 h, the half-life was 0.76 h and the Vd was found to be 1.29 L/kg.

For “YGRKKRRQRRRKKNRNKLRRQHSY-NH2 [Example 6]”, in data set [1], the mean residence time MRT came out at 1.65 h, the half-life was 1.23 h and the Vd was determined as 2.53 L/kg.
